Assay results: ChEMBL document CHEMBL3832067, “DailyMed|setid=d28bec8f-762e-4f05-a20d-96a42970d6a7 | Estradiol - estradiol patch|Mylan Pharmaceuticals Inc”

Experiments:
[1] = (§1) Evaluation of pharmacokinetic parameters for Estradiol after multiple topical applying Estradiol transdermal systems to the abdomen or the buttocks of 17 healthy, postmenopausal female subjects.; type: ADME, organism-based; design: dose 0.075 mg/day, dose 0.1 mg/day, dose 0.0375 mg/day, dose 0.05 mg/day, route topical to abdomen, route topical to buttocks; details: human, in vivo, topical or ocular; dose 0.05 mg/day, dosed compound id 17, dosed compound name ESTRADIOL, gender female, regimen Multiple dose, route topical to abdomen, tissue Plasma; read-out: Cmin(80hr)
Homo sapiens = assay: as §1; type: ADME, organism-based; design: dose 0.075 mg/day, dose 0.1 mg/day, dose 0.0375 mg/day, dose 0.05 mg/day, route topical to abdomen, route topical to buttocks; details: in vivo, topical_or_ocular, dosed compound id 17, dosed compound name ESTRADIOL, gender female, regimen Multiple dose, tissue Plasma
[2] = dose 0.0375 mg/day, route topical to abdomen
[3] = dose 0.075 mg/day, route topical to abdomen
[4] = dose 0.1 mg/day, route topical to abdomen
[5] = dose 0.1 mg/day, route topical to buttocks

Question: What does the source list for C[C@]12CC[C@@H]3c4ccc(O)cc4CC[C@H]3[C@@H]1CC[C@@H]2O [ESTRADIOL]?
Answer: concentration at 80 h [1]: 0.041 ng/mL; Cavg (Homo sapiens; [2]): 0.034 ng/mL; Cmin(84hr) (Homo sapiens; [2]): 0.03 ng/mL; Cavg (Homo sapiens; dose 0.05 mg/day, route topical to abdomen): 0.057 ng/mL; Cavg (Homo sapiens; [3]): 0.072 ng/mL; Cmin(84hr) (Homo sapiens; [3]): 0.06 ng/mL; Cavg (Homo sapiens; [4]): 0.089 ng/mL; Cmin(84hr) (Homo sapiens; [4]): 0.09 ng/mL; Cavg (Homo sapiens; [5]): 0.104 ng/mL; Cmin(84hr) (Homo sapiens; [5]): 0.085 ng/mL
